# Measurements reported in US9278958B2, “Anti-cancer compounds” (KATHOLIEKE UNIVERSITEIT LEUVEN, priority 2012, dated 2016).
# Read-outs that look alike come from different tables or passages of the source.
# What was measured:
# [1] = test system: OST TK- osteosarcoma cells; test: Cytostatic assay, OST TK-; assay type: cell-based; details: Homo sapiens; Table 3
# Summary of the method: (§1)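 Read-out is the cell number after incubation, counted electronically (Coulter). Cultures started from 5-7.5×10^4 cells per well exposed to compound, kept 48 h to 96 h at 37° C under humidified CO2 control.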
# [2] = test system: PC3 (rega) prostate cancer cells; test: Cytostatic assay, PC3 (rega); assay type: cell-based; details: Table 4
# Summary of the method: as §1
# [3] = test system: HL60, human leukemia cells; test: Cytostatic assay, HL-60; assay type: cell-based; details: Table 2
# Summary of the method: as §1
# CEM cells = test: Cytostatic assay, CEM; assay type: cell-based; details: Homo sapiens, CCRF-CEM
# Summary of the method: as §1
# Molt4/C8 cells = test: Cytostatic assay, Molt4/C8; assay type: cell-based; details: Table 2
# Summary of the method: as §1
# [4] = test system: RNA synthesis in CEM cells; test: Antimetabolic activity assay, [5-3H]uridine incorporation (RNA synthesis), CEM; assay type: cell-based; details: Homo sapiens, CCRF-CEM, incorporation into TCA-insoluble material
# Experimental: (§2) Radiolabeled precursors of DNA synthesis ([^3H-methyl]dThd), RNA synthesis ([5-^3H]Urd), and protein synthesis ([4,5-^3H]leu) were added to 10^5 CEM cell cultures in the 200 μl-wells of a microtiter plate at 1 μCi for each precursor in the presence of varying concentrations of the test compounds (5-fold dilution series). The cells were allowed to proliferate for 20 hrs at 37° C. in a humidified, CO2-controlled atmosphere. At the end of the incubation period, the contents of the wells were brought onto 25-mm glass fiber filters and further processed for measurement of acid-insoluble radioactivity.
# HUT-78 cells = test: Cytostatic assay, HUT-78; assay type: cell-based; details: Homo sapiens, HuT78; Table 2
# Summary of the method: as §1
# [5] = test system: Raji, human B-lymphoma cells; test: Cytostatic assay, Raji; assay type: cell-based; details: Table 2
# Summary of the method: as §1
# [6] = test system: U937, human monocytic cells; test: Cytostatic assay, U937; assay type: cell-based; details: U-937, Table 2
# Summary of the method: as §1
# [7] = test system: broad variety of tumor cell lines; test: Cytostatic assays, summary over the panel of cell lines (Tables 2-4); assay type: cell-based
# Experimental: (§3) To each well of a 96-well microtiter plate were added 5-7.5×10^4 cells and a given amount of the test compound. The cells were allowed to proliferate for 48 h to 96 h (depending on the nature of the cell line) at 37° C. in a humidified CO2-controlled atmosphere. At the end of the incubation period, the cells were counted in a Coulter Counter (Coulter Electronics Ltd, Harpenden Herts, United Kingdom).
# [8] = test system: DU145 (UZ) prostate cancer cells; test: Cytostatic assay, DU145 (UZ); assay type: cell-based; details: Homo sapiens, DU-145; Table 4
# Summary of the method: as §1
# [9] = test system: Caki-1 kidney carcinoma cells; test: Cytostatic assay, Caki-1; assay type: cell-based; details: Homo sapiens, Table 3
# Summary of the method: as §1
# [10] = test system: 293T embryonic kidney cells; test: Cytostatic assay, 293T; assay type: cell-based; details: Homo sapiens, HEK-293T; Table 3
# Summary of the method: as §1
# [11] = test system: DNA synthesis in Raji cells; test: Antimetabolic activity assay, [CH3-3H]dThd incorporation (DNA synthesis), Raji; assay type: cell-based; details: Homo sapiens, incorporation into TCA-insoluble material
# Experimental: [The procedure below names another cell line; the source lists this cell line under the same test.] as §2
# HepG2C3A hepatoma cells = test: Cytostatic assay, HepG2C3A; assay type: cell-based; details: Homo sapiens, HepG2/C3A; Table 4
# Summary of the method: as §1
# [12] = test system: Caki-2 kidney carcinoma cells; test: Cytostatic assay, Caki-2; assay type: cell-based; details: Homo sapiens, Table 3
# Summary of the method: as §1
# MT-4 cells = test: Cytostatic assay, MT-4; assay type: cell-based; details: Homo sapiens, MT4; Table 2
# Summary of the method: as §1
# [13] = test system: THP-1, human monocytic cells; test: Cytostatic assay, THP-1; assay type: cell-based; details: Table 2
# Summary of the method: as §1
# Sup T1 cells = test: Cytostatic assay, Sup T1; assay type: cell-based; details: Homo sapiens, Table 2, read-out: Cytostatic activity (μM) Sup T 1
# Summary of the method: as §1
# [14] = test system: PNT1A (UZ) prostate cells; test: Cytostatic assay, PNT1A (UZ); assay type: cell-based; details: Homo sapiens, Table 4
# Summary of the method: as §1
# [15] = test system: PC-3 (UZ) prostate cancer cells; test: Cytostatic assay, PC-3 (UZ); assay type: cell-based; details: Table 4
# Summary of the method: as §1
# [16] = test system: MCF-7 mammary carcinoma cells; test: Cytostatic assay, MCF-7; assay type: cell-based; details: Homo sapiens, MCF7; Table 3
# Summary of the method: as §1
# [17] = test system: HEL embryonic lung fibroblast cells; test: Cytostatic assay, HEL; assay type: cell-based; details: Homo sapiens, Table 3
# Summary of the method: as §1
# [18] = test system: RNA synthesis in Raji cells; test: Antimetabolic activity assay, [5-3H]uridine incorporation (RNA synthesis), Raji; assay type: cell-based; details: Homo sapiens, incorporation into TCA-insoluble material
# Experimental: [The procedure below names another cell line; the source lists this cell line under the same test.] as §2
# [19] = test system: 22Rv1 (UZ) prostate cancer cells; test: Cytostatic assay, 22Rv1 (UZ); assay type: cell-based; details: Homo sapiens, Table 4
# Summary of the method: as §1
# [20] = test system: protein synthesis in CEM cells; test: Antimetabolic activity assay, [4,5-3H]leucine incorporation (protein synthesis), CEM; assay type: cell-based; details: Homo sapiens, CCRF-CEM, incorporation into TCA-insoluble material
# Experimental: as §2
# [21] = test system: FM3A mammary carcinoma cells; test: Cytostatic assay, FM3A; assay type: cell-based, murine; details: Mus musculus, Table 3
# Summary of the method: as §1
# U87 glioma cells = test: Cytostatic assay, U87; assay type: cell-based; details: Homo sapiens, U-87 MG; Table 3
# Summary of the method: as §1
# [22] = test system: HeLa cervix carcinoma cells; test: Cytostatic assay, HeLa; assay type: cell-based, human; details: Homo sapiens; Table 3; read-out: Cytostatic activity (μM) Hela
# Summary of the method: as §1
# [23] = test system: DNA synthesis in CEM cells; test: Antimetabolic activity assay, [CH3-3H]dThd incorporation (DNA synthesis), CEM; assay type: cell-based; details: Homo sapiens, CCRF-CEM, incorporation into TCA-insoluble material
# Experimental: as §2
# [24] = test system: LNCaP (UZ) prostate cancer cells; test: Cytostatic assay, LNCaP (UZ); assay type: cell-based; details: Homo sapiens, Table 4
# Summary of the method: as §1
# C8166 cells = test: Cytostatic assay, C8166; assay type: cell-based; details: Homo sapiens, Table 2
# Summary of the method: as §1
# MT-2 cells = test: Cytostatic assay, MT-2; assay type: cell-based; details: Homo sapiens, MT2; Table 2
# Summary of the method: as §1
# BPH-1 (UZ) = test: Cytostatic assay, BPH-1 (UZ); assay type: cell-based; details: Homo sapiens, Table 4
# Summary of the method: as §1
# [25] = test system: Daudi, human B-lymphoma cells; test: Cytostatic assay, Daudi; assay type: cell-based; details: Table 2
# Experimental: as §3
# PLC/PRF/5 hepatoma cells = test: Cytostatic assay, PLC/PRF/5; assay type: cell-based; details: Homo sapiens, Table 4
# Summary of the method: as §1
# Huh-7 hepatoma cells = test: Cytostatic assay, Huh-7; assay type: cell-based; details: Homo sapiens, Table 4
# Summary of the method: as §1
# [26] = test system: BAEC aortic endothelial cells; test: Cytostatic assay, BAEC; assay type: cell-based, bovine; details: Bos taurus, Table 3
# Summary of the method: as §1
# [27] = test system: U87 CD4+/CXCR4+/CCR5+ glioma cells; test: Cytostatic assay, U87 CD4+/CXCR4+/CCR5+; assay type: cell-based; details: Homo sapiens, Glioma cell; Table 3
# Experimental: as §3
# [28] = test system: HOS CD4+ osteosarcoma cells; test: Cytostatic assay, HOS CD4+; assay type: cell-based; details: Homo sapiens; Table 3
# Experimental: as §3
# [29] = test system: protein synthesis in Raji cells; test: Antimetabolic activity assay, [4,5-3H]leucine incorporation (protein synthesis), Raji; assay type: cell-based; details: Homo sapiens, incorporation into TCA-insoluble material
# Experimental: [The procedure below names another cell line; the source lists this cell line under the same test.] as §2
# [30] = test system: HT29 colorectal carcinoma cells; test: Cytostatic assay, HT29; assay type: cell-based; details: Homo sapiens, HT-29; Table 3
# Summary of the method: as §1
# L1210 cells = test: Cytostatic assay, L1210; assay type: cell-based; details: Mus musculus, Table 2
# Summary of the method: as §1
# [31] = Table 1a, read-out: IC50 μM (CEM)
# [32] = Table 2, read-out: Cytostatic activity (μM) CEM
compound,measurement,setting,value
"COC(=O)c1cc(CCc2ccccc2OC)sc1N [TR567, 2-Amino-5-[2-(2-methoxy-phenyl)-ethyl]-thiophene-3-carboxylic acid methyl ester]",IC50,[1],7.6 ± 2.4 µM
same,IC50,[2],0.71 ± 0.28 µM
same,IC50,[3],4 ± 3.3 µM
same,IC50,CEM cells; [31],1.8 µM
same,IC50,CEM cells; [32],1.8 ± 0.92 µM
same,IC50,Molt4/C8 cells,0.81 ± 0.49 µM
same,IC50,[4],2.6 ± 0.6 µM
same,IC50,HUT-78 cells,13 ± 4.2 µM
same,IC50,[5],19 ± 4.2 µM
same,IC50,[6],10 ± 0.85 µM
same,IC50,"[7]; Homo sapiens, HuT78, range for the seven compounds, MT-4 and HUT-78 cells, read-out: IC50 range, cytostatic activity against MT-4 and HUT-78 cells",8500 to 60000 nM
same,IC50,"[7]; range for the seven compounds against the 5 tumor cell lines, read-out: IC50 range, cytostatic activity against CEM, Molt4/C8, Sup T1, MT-2 and C8166 cells",220 to 3400 nM
same,IC50,[8],11 ± 7 µM
same,IC50,[9],3.7 ± 1.8 µM
same,IC50,[10],22 ± 15 µM
same,IC50,[11],54 ± 8 µM
same,IC50,HepG2C3A hepatoma cells,8.6 ± 0.28 µM
same,IC50,[12],4.5 ± 1.9 µM
same,IC50,MT-4 cells,14 ± 2.8 µM
same,IC50,[13],13 ± 1.4 µM
same,IC50,Sup T1 cells,1.5 µM
same,IC50,[14],17 ± 2.8 µM
same,IC50,[15],1.4 ± 0.071 µM
same,IC50,[16],22 ± 3.5 µM
same,IC50,[17],20 ± 7.8 µM
same,IC50,[18],68 ± 8 µM
same,IC50,[19],5.7 ± 2.8 µM
same,IC50,[20],1.4 ± 0.9 µM
same,IC50,[21],37 ± 0.71 µM
same,IC50,U87 glioma cells,38 µM
same,IC50,[22],17 ± 2.1 µM
same,IC50,[23],6.4 ± 4.1 µM
same,IC50,[24],0.43 ± 0.14 µM
same,IC50,C8166 cells,3 ± 0.21 µM
same,IC50,MT-2 cells,2.1 ± 0.071 µM
same,IC50,BPH-1 (UZ),39 ± 2.8 µM
same,IC50,[25],13 ± 0.71 µM
same,IC50,PLC/PRF/5 hepatoma cells,18 ± 4.2 µM
same,IC50,Huh-7 hepatoma cells,3.4 ± 1.2 µM
same,IC50,[26],20 ± 4.2 µM
same,IC50,[27],32 ± 2.1 µM
same,IC50,[28],23 ± 4.2 µM
same,IC50,[29],45 ± 8 µM
same,IC50,[30],17 ± 7.8 µM
"COc1ccc(OC)c(CCc2cc(C#N)c(N)s2)c1 [TR589, 2-Amino-5-[2-(2,5-dimethoxy-phenyl)-ethyl]-thiophene-3-carbonitrile]",IC50,[2],< 0.032 µM
same,IC50,[3],0.024 ± 0.004 µM
same,IC50,CEM cells; [31],0.015 µM
same,IC50,CEM cells; [32],0.015 µM
same,IC50,Molt4/C8 cells,0.058 ± 0.056 µM
same,IC50,[4],44 ± 11 µM
same,IC50,HUT-78 cells,0.062 ± 0.039 µM
same,IC50,[5],0.063 ± 0.013 µM
same,IC50,[6],0.036 ± 0.001 µM
same,fold more cytostatic than the corresponding -COOEt-containing compound 16b,[7],50 fold
same,IC50,"[7]; range over the cell lines of Tables 2-4, read-out: IC50 range (antiproliferative activity)",20 to 130 nM
same,IC50,[8],0.061 ± 0.016 µM
same,IC50,[9],0.016 ± 0.001 µM
same,IC50,[10],< 0.032 µM
same,IC50,[11],≥ 100 µM
same,IC50,HepG2C3A hepatoma cells,0.29 ± 0.18 µM
same,IC50,[12],0.042 ± 0.004 µM
same,IC50,MT-4 cells,0.086 ± 0.048 µM
same,IC50,[13],0.022 ± 0.003 µM
same,IC50,Sup T1 cells,0.017 ± 0.012 µM
same,IC50,[14],< 0.032 µM
same,IC50,[15],< 0.032 µM
same,IC50,[16],0.026 ± 0.0014 µM
same,IC50,[17],< 0.032 µM
same,IC50,[18],90 ± 14 µM
same,IC50,[19],< 0.032 µM
same,IC50,[20],20 µM
same,IC50,[21],0.05 ± 0.046 µM
same,IC50,U87 glioma cells,0.038 ± 0.008 µM
same,IC50,[22],0.13 ± 0.06 µM
same,IC50,[23],> 100 µM
same,IC50,[24],< 0.032 µM
same,IC50,C8166 cells,0.021 ± 0.009 µM
same,IC50,MT-2 cells,0.027 ± 0.001 µM
same,IC50,BPH-1 (UZ),< 0.032 µM
same,IC50,PLC/PRF/5 hepatoma cells,0.041 ± 0.013 µM
same,IC50,Huh-7 hepatoma cells,< 0.16 µM
same,IC50,[26],< 0.032 µM
same,IC50,L1210 cells,0.064 ± 0.025 µM
same,IC50,[29],39 ± 36 µM
same,IC50,[30],0.046 ± 0.012 µM
